Measurements taken from ChEMBL document CHEMBL1201862, “PubChem BioAssay data set” (2004).
Activity calls are given as the source filed them.

Experiments:
[1] = molecular target: Sphingosine 1-phosphate receptor 1 (Homo sapiens, UniProt P21453); assay: Fluorescence-based counterscreen assay for S1P4 agonists: Cell-based dose response high throughput screening assay to identify agonists of the Sphingosine 1-Phosphate Receptor 1 (S1P1). [Related pubchem assays (depositor defined):AID1509, AID1523, AID1801, AID463107, AID463118, AID463119, AID463122, AID463123, AID463129, AID463225, AID504400, AID504460]; assay type: functional
Chain of Sphingosine 1-phosphate receptor 1 (P21453 whole entry): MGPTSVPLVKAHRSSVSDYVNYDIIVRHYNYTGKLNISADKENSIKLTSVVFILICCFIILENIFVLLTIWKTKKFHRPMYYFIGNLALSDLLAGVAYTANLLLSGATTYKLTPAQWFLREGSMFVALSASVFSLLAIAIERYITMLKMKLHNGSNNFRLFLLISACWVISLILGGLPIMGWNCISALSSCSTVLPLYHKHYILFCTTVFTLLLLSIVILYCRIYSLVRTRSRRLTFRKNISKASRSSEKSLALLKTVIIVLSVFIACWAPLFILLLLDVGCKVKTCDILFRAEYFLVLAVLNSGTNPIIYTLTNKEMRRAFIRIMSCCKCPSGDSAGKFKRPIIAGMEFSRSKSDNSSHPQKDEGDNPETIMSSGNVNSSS

[2] = molecular target: T1, Sphingosine 1-phosphate receptor 2 (Homo sapiens, UniProt O95136); assay: Dose Response Cell Based Assay for Agonists of the S1P2 Receptor. [Related pubchem assays: 729, 736, 843 ]; assay type: functional
T1 sequence (O95136 whole entry): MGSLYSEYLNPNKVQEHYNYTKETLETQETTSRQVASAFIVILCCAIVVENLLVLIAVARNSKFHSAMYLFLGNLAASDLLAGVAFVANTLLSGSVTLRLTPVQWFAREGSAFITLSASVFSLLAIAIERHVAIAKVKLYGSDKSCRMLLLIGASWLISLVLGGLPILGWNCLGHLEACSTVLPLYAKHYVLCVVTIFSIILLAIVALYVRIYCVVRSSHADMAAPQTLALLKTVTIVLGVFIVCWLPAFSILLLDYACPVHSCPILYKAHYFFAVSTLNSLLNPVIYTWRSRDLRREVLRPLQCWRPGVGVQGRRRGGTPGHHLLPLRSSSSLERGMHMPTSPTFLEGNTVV

Estrogen receptor beta [3] = molecular target: T2, Estrogen receptor beta (Homo sapiens, UniProt Q92731); assay: ERβ–SRC-3 coactivator interaction inhibitors, confirmation, orthogonal assay, biochemical, ELISA, streptavidin-HRP readout (AID 1060)
T2 sequence (Q92731 whole entry): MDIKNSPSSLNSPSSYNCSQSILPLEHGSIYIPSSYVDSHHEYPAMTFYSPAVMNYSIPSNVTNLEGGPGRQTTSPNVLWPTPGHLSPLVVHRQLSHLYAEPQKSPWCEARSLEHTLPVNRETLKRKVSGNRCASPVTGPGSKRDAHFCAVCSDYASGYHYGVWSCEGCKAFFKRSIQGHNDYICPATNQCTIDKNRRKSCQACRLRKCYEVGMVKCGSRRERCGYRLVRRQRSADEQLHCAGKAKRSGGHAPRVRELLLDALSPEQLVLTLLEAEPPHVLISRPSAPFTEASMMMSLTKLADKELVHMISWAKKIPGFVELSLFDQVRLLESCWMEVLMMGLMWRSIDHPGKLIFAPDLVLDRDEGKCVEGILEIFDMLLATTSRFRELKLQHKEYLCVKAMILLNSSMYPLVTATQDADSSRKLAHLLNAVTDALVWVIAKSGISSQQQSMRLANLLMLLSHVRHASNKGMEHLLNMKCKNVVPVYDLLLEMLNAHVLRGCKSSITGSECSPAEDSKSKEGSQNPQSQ

Estrogen receptor = molecular target: T3, Estrogen receptor (Homo sapiens, UniProt P03372);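 note: potency for inhibiting coactivator peptide recruitment to the receptor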
T3 sequence (P03372 whole entry): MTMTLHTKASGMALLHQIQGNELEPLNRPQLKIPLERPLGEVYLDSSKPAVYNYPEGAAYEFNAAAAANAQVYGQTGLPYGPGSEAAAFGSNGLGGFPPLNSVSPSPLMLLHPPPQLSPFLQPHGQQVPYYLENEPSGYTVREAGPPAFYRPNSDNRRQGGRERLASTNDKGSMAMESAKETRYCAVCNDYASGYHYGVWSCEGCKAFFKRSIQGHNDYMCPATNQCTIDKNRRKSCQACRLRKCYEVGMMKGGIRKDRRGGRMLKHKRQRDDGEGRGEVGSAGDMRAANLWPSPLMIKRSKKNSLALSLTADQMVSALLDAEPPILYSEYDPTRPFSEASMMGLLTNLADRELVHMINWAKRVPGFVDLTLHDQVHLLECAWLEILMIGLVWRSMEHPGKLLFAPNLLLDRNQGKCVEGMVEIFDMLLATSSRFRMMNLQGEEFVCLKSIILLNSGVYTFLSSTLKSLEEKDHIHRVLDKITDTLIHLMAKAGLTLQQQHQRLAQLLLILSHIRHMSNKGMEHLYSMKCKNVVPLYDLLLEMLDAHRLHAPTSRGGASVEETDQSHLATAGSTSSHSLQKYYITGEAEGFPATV

[4] = molecular target: Sphingosine 1-phosphate receptor 4 (Homo sapiens, UniProt O95977); assay: Fluorescence dose response cell-based high throughput screening assay for agonists of the Sphingosine 1-Phosphate Receptor 4 (S1P4). [Related pubchem assays: 1509 (Primary screen.), 1523 (Confirmation screen in triplicates.)]; assay type: functional
Chain of Sphingosine 1-phosphate receptor 4 (O95977 whole entry): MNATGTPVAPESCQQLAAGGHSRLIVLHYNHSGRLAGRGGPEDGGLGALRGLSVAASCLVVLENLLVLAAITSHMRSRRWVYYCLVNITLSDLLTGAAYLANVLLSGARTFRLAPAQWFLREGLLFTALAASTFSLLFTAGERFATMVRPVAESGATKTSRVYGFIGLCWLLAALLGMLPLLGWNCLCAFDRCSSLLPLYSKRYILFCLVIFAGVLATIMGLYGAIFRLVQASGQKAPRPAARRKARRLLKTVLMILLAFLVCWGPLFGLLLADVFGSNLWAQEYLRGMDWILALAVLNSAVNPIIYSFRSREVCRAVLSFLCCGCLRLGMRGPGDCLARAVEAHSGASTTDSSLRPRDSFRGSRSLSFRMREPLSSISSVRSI

Estrogen receptor beta [5] = molecular target: T2, Estrogen receptor beta
H4 = assay: Luminescence Cell-Based Dose Response HTS to Identify Activators of 5'UTR Stem-Loop Driven Prion Protein mRNA Translation in H4 Neuroglioblastoma Cells. [Related pubchem assays: 1829 (Project Summary), 1814 (Primary HTS)]; assay type: functional; details: Homo sapiens
[6] = Luminescence Cell-Based Dose Response to Identify Activators of Luciferase Translation or Activity in H4-C Neuroglioblastoma Cells. [Related pubchem assays: 1829 (Project Summary), 1814 (Primary HTS)]; assay type: functional
[7] = Luminescence Cell-Based Dose Response to Identify Activators of 5'UTR Stem-Loop Driven Prion Protein mRNA Translation in H4-C Neuroglioblastoma Cells. [Related pubchem assays: 1829 (Project Summary), 1814 (Primary HTS)]; assay type: functional
[8] = Luminescence Cell-Based Dose Response HTS to Identify Activators of Luciferase Translation or Activity in H4 […] Cells. [Related pubchem assays: 1829 (Project Summary), 1814 (Primary HTS)]; assay type: functional
[9] = Luminescence Cell-Based Dose Confirmation to Identify Activators of 5'UTR Stem-Loop Driven Alpha-Synuclein mRNA Translation in H4 Neuroglioblastoma Cells. [Related pubchem assays: 1829 (Project Summary), 1814 (Primary HTS)]; assay type: functional
[10] = molecular target: Mitogen-activated protein kinase 10 (Homo sapiens, UniProt P53779); assay: Dose response biochemical screening assay for inhibitors of c-Jun N-Terminal Kinase 3 (JNK3). [Related pubchem assays: 746 ]
Chain of Mitogen-activated protein kinase 10 (P53779 whole entry, the tested form may be a part): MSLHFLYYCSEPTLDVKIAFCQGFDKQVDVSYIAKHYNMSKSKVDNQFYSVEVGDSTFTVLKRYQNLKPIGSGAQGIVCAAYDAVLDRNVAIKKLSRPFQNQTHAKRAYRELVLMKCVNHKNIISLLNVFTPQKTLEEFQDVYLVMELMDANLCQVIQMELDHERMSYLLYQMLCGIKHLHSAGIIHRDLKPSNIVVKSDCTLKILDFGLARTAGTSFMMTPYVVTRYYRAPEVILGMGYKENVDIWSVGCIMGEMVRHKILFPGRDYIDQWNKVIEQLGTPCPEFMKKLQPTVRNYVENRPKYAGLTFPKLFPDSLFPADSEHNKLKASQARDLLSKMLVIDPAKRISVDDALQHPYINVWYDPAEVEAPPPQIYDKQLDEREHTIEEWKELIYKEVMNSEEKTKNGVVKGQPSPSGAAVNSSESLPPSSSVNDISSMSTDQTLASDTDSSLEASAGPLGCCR

[11] = molecular target: T4, RNA-binding protein pos-1 (Caenorhabditis elegans, UniProt G5EF15); assay: inhibitors of POS-1/mex-3 RNA binding, dose response, biochemical, fluorescence polarization (AID 1964);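 note: purified POS-1 fused to maltose binding protein made in E. coli; potency of compounds blocking POS-1 binding to fluorescent RNA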
T4 sequence (G5EF15 whole entry): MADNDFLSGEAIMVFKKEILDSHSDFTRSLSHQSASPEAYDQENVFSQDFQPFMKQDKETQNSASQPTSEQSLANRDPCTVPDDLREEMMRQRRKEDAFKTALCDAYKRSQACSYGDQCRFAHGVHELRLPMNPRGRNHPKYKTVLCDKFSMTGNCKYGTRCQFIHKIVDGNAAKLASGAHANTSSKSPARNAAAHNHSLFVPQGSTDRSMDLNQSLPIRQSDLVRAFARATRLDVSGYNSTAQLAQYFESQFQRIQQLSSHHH

[12] = Vero cell cytotoxicity, dose response, cytotoxicity control for Vif-APOBEC3G degradation inhibitor project, Vero cells (AID 1117358); assay type: functional; details: Human immunodeficiency virus 1, Vero
[13] = molecular target: T5, Zinc finger protein mex-5 (Caenorhabditis elegans, UniProt Q9XUB2); assay: MEX-5/TCR-2 RNA interaction inhibitors, dose response, biochemical, C. elegans, fluorescence polarization (AID 1960)
T5 sequence (Q9XUB2 whole entry): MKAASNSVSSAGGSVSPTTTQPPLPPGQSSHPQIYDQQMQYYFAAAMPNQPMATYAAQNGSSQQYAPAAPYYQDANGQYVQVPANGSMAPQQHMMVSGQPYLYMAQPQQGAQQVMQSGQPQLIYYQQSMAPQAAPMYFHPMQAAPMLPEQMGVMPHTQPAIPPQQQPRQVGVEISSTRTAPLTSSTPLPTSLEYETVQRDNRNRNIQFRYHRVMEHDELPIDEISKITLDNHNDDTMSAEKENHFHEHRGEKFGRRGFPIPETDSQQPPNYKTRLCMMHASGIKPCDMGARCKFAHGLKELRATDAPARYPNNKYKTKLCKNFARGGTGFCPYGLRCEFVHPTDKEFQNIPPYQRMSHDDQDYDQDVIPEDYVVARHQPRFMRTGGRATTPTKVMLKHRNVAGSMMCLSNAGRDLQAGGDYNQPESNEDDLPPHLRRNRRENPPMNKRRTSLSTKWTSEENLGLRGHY

Streptococcus = assay: Group A Streptococcus viability loss, dose response, counter-screen for streptokinase expression inhibitor project, luminescence, BacTiterGlo (AID 1915); assay type: functional, organism-based;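 note: potency for reduction of bacterial viability or growth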
Streptokinase A = molecular target: T6, Streptokinase A (Streptococcus pyogenes serotype M1, UniProt P10520); assay: S. pyogenes streptokinase expression inhibitors, potency, dose response, plasminogen activation absorbance, OD405 (AID 1914); assay type: functional, Streptococcus pyogenes M1 GAS;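 note: secreted streptokinase activity via plasminogen activation per viability signal from cell pellet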
T6 sequence (P10520 whole entry): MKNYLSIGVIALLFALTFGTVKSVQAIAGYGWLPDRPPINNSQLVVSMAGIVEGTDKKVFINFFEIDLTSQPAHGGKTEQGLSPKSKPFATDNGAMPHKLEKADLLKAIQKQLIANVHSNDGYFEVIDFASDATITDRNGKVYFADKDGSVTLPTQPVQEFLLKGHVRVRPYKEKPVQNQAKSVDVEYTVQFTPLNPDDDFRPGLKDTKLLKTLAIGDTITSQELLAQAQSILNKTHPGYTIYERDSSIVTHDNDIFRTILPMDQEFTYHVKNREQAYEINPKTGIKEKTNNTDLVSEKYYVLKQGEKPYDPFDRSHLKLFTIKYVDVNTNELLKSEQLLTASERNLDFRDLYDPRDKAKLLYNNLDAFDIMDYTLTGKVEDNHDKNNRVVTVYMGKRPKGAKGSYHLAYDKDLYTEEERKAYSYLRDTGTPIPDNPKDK

[14] = test system: Streptococcus sp. 'group A'; assay: growth inhibition of control SK(-) GAS strain, dose response, counter-screen for streptokinase expression inhibitor project, luminescence, kanamycin, BacTiterGlo, confirmation (AID 1900); assay type: functional, organism-based
[15] = molecular target: T1, Sphingosine 1-phosphate receptor 2; assay: Dose Response Cell Based Assay for Antagonists of the S1P2 Receptor. [Related pubchem assays: 856, 736 ]; assay type: functional
Escherichia coli = assay: microbe, parasite or virus in culture
[16] = inhibitors of Vif binding to APOBEC3G peptide, primary screen, biochemical, TR-FRET, GST-Vif 1-94, biotin-A3G peptide, dose response retest (AID 1117319); assay type: functional;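 note: TR-FRET signal of purified GST-Vif binding a biotinylated A3G peptide; inhibitors lower the FRET signal by blocking Vif and A3G binding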
Danio rerio = assay: In Vivo Angiogenesis Dose-Response Confirmation. [Related pubchem assays: 732 (Assay preceding this confirmatory assay.)]; assay type: functional, organism-based
[17] = M. tuberculosis growth inhibition, HTS (AID 449762); assay type: functional
[18] = IGROV1 ovarian cancer cell cytotoxicity, dose response, PAX8 inhibitor project, plate reader, dry powder samples (AID 743043); assay type: functional, cell-based; details: IGROV-1
[19] = NIH:OVCAR-3 ovarian cancer cell cytotoxicity, dose response, PAX8 inhibitor project, plate reader, dry powder samples (AID 743044); assay type: functional, cell-based
Paired box protein Pax-8 = Paired box protein Pax-8 (Homo sapiens, UniProt Q06710); assay: inhibitors of PAX8-driven TPO luciferase reporter, dose response, RMG-I cells, cherry-pick (AID 687027); assay type: functional, cell-based;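 note: luciferase reporter driven by Pax8 target thyroperoxidase promoter measured by SteadyGlo luminescence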
Chain of Paired box protein Pax-8 (Q06710 whole entry): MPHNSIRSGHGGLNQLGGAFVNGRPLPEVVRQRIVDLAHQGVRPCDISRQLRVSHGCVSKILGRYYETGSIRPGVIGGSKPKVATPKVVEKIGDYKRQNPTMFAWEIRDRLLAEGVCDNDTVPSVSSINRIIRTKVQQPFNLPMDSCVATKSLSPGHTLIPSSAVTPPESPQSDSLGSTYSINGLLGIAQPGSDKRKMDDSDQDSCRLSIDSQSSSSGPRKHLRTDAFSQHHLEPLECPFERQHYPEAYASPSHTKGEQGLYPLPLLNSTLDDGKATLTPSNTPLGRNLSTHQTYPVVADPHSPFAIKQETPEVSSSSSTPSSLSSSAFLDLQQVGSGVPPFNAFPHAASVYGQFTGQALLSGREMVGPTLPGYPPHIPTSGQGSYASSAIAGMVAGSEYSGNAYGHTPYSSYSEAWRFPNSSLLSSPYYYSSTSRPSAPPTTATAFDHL

[20] = P. falciparum Dd2 growth inhibitors, dose response, SYBR Green, dry powder samples, set 9 (AID 1159568); assay type: functional, cell-based
Galanin receptor type 2 = Galanin receptor type 2 (Homo sapiens, UniProt O43603); assay: Dose Response cell-based high-throughput screening assay to identify agonists of galanin receptor 2 (GALR2). [Related pubchem assays: 864 ]; assay type: functional
Chain of Galanin receptor type 2 (O43603 whole entry): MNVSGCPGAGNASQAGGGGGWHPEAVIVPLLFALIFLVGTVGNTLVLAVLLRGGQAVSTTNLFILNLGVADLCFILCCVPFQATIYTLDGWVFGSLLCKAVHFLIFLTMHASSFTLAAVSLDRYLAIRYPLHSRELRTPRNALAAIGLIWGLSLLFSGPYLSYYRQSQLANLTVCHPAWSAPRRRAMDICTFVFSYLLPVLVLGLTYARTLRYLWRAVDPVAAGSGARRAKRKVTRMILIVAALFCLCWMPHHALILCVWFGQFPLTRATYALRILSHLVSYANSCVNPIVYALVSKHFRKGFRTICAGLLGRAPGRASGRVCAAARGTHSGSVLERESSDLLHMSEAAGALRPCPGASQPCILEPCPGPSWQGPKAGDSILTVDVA

[21] = growth suppression of PTEN-null colon cells, dose response, cell-based, HCT116 PTEN knockout (AID 1047); assay type: functional;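 note: HCT116 colon tumor cells with PTEN knocked out; cells exposed to compound for 60 hours before readout; potency for loss of cell viability measured by luminescence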
[22] = molecular target: T7, Mannose-6-phosphate isomerase (Homo sapiens, UniProt P34949); assay: human PMI inhibitors, high substrate, primary screen, biochemical, fluorescence intensity, high mannose 6-phosphate (AID 1220)
T7 sequence (P34949 whole entry): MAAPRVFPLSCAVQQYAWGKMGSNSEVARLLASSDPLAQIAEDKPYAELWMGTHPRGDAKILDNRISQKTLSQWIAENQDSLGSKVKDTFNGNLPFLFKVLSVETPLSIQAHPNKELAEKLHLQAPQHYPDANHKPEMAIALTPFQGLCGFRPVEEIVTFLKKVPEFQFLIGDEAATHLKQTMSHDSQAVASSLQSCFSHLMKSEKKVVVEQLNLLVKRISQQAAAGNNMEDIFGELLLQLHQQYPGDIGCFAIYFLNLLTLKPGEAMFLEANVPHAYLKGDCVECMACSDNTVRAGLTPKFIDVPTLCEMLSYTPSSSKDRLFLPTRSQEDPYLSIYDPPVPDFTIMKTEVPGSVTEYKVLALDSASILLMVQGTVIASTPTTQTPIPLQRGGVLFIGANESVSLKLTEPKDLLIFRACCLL

INS1 = assay: beta cell apoptosis inhibitors, cytokine rescue, dose response, luminescence, retest (AID 449756); assay type: functional, cell-based; details: Rattus norvegicus;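 note: cell death triggered by IL-1 beta plus TNF-alpha plus IFN-gamma mixture; protective hits raise ATP signal compared with cytokine alone wells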
[23] = growth suppression of beta-catenin-knockout colon cells, dose response, cell-based, HCT116, human colon tumor (AID 1045); assay type: functional;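 note: HCT116 colon tumor cells with beta catenin knocked out; cells exposed to compound for 60 hours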
Large T antigen = Large T antigen (Simian virus 40, UniProt P03070); assay type: functional, Betapolyomavirus macacae;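 note: Confirmatory-stage PubChem screen for compounds that inhibit SV40 T antigen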
Chain of Large T antigen (P03070 whole entry): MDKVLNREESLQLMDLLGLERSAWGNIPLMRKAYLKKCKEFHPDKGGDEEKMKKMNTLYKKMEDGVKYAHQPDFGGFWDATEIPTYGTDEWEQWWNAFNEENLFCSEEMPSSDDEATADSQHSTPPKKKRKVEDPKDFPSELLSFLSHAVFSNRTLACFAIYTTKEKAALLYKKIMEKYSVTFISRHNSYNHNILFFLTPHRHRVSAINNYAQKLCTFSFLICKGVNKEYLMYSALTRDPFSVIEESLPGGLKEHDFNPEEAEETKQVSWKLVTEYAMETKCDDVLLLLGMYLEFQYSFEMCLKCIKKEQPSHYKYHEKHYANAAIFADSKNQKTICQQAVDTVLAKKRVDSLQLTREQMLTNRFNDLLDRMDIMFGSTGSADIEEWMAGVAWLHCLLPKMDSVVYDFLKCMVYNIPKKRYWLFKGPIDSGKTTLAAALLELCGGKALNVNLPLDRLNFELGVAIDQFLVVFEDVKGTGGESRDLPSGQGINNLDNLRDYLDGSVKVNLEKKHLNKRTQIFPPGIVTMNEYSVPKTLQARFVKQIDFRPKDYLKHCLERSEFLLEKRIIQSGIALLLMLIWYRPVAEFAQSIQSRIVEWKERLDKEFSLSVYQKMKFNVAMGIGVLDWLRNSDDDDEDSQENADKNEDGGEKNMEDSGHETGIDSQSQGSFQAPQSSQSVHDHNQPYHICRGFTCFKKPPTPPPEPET

[24] = molecular target: Heat shock protein HSP 90-alpha (Homo sapiens, UniProt P07900); assay type: functional, organism-based

C=CCn1c(=O)c(C#N)cc2c(=O)n3ccccc3nc21
EC50 [1]: 24.6 µM (inactive)
EC50 [2]: 64.4 µM (not active)
IC50 (Estrogen receptor beta [3]): < 0.023 µM (not active)
IC50 (Estrogen receptor): 44.7 µM (not active)
EC50 [4]: 6.15 µM (active)
IC50 (Estrogen receptor beta [5]): 21.1 µM (active)

O=C(Nc1ccc2oc(=O)ccc2c1)c1cc2ccccc2o1
EC50 (H4): > 120 µM (not active)
EC50 [6]: 0.317 µM (active)
EC50 [7]: 0.579 µM (active)
EC50 [8]: < 0.1 µM (active)
EC50 [9]: 0.304 µM (active)

COc1cc(C(=O)Nc2nccs2)ccc1OCc1c(C)noc1C
IC50 [10]: > 31 µM (not active)

Cc1cccc(NC2=Nc3ccccc3N3C2=Nc2c(c(C)nn2-c2ccccc2)C3c2ccc(O)c(O)c2)c1 (centres undefined)
EC50 [11]: 46.4 µM (active)
CC50 [12]: 17.4 µM (active)
EC50 [13]: 28.3 µM (active)
EC50 (Streptococcus): 3.2 µM (active)
EC50 (Streptokinase A): > 150 µM (not active)
EC50 [14]: 1.54 µM (active)
IC50 [15]: 4.37 µM (active)

COc1ccc(S(=O)(=O)NCCSCc2ccco2)cc1Cl
AC50 (Escherichia coli): 43.2 µM (active)
IC50 [16]: > 100 µM (active)

O=C1Nc2ccccc2/C1=C1/Nc2ccc(Br)cc2/C1=N\O
IC50 (Danio rerio): > 10 µM (not active)

O=C(O)c1ccccc1C(=O)NNc1ccc(Cl)cc1Cl
IC50 [17]: > 100 µM (active)

O=C(Nc1ccccc1F)N1CCCCN2[C@@H](CO)[C@@H](c3ccc(/C=C/c4ccccc4)cc3)[C@@H]2C1
AC50 [18]: 29.1 µM (active)
AC50 [19]: 10.6 µM (active)
AC50 (Paired box protein Pax-8): 7.96 µM (active)
AC50 [20]: 2.52 µM (active)

CC1=C/C(=N\OS(=O)(=O)c2ccccc2)C(C(C)C)=CC1=O
EC50 (Galanin receptor type 2): > 55.7 µM (not active)
EC50 [21]: 2.93 µM (active)
IC50 [22]: 6.04 µM (active)
AC50 (INS1): 3.88 µM (active)
EC50 [23]: 3.13 µM (active)
IC50 (Large T antigen): 48.2 µM (active)
AC50 [24]: 0.751 µM (active)
